According to patent publication US8765791B2, “Method of treating cancer using a neuropeptide Y 5R (NP Y5R) antagonist” (University Health Network, priority 2008, dated 2014):

Tests used:
[1] = test system: Breast cancer cells, MDA MB 468; assay: breast cancer xenograft model, MK0557 and 5-FU (Example 15); type: in vivo, CB17-SCID; conditions: MK0557 alone, 30 mg/kg ip. 3/week
Protocol: Breast cancer cells, MDA MB 468, were injected into CB17-SCID. The treatments were started day 14 after tumor implantation. […] Tumor volume and tumor growth were monitored during the experiment.

[2] = test system: Hodgkin Lymphoma cells, HD-MYZ; assay: Hodgkin's lymphoma xenograft model, MK-0557 and 200464 (Example 16); type: in vivo
Text: Hodgkin lymphoma cells, HD-MYZ, were implanted in NOD-SCID mice, female, 4-6 weeks from Jackson's Laboratory (Maine). The treatments were started day 6 after tumor implantation. The mice were divided to six groups, 4-5 mice from each group. The treatment started with a tumor volume of about 70 mm3 after tumor implantation.

[3] = test system: Ovarian cancer cells, Caov-3; assay: ovarian cancer xenograft model (Example 10); type: in vivo, CB17-SCID mice
Protocol: Ovarian cancer cells, Caov-3 (2 Million), were implanted in CB17-SCID mice. The mice were treated with MK0557 at 30 mg/kg or vehicle (15% of 0.5% of CMC (carboxymethylcellulose, low viscosity) and 85% of 0.2% Tween 80 in water) intraperitoneally daily for the first week followed by once every two days injections. Both the tumor growth and body weights were monitored for the duration of the experiment.

[4] = test system: HUV-EC-C cells; assay: in vitro angiogenesis assay, tube formation; type: cell-based; conditions: HUV-EC-C on ECMatrix, after 5 hours
Protocol: HUV-EC-C cells were purchased from ATCC and routinely cultured in Ham's F12K medium supplemented with 10% FBS, 2 mM L-glutamine, 1.5 g/L sodium bicarbonate, 0.1 mg/ml heparin and 0.03 mg/ml endothelial cell growth supplement (ECGS).
An In Vitro Angiogenesis Assay kit from Chemicon (Cat#ECL625) was used for testing HUV-EC-C tube formation. Cells were incubated on ECMatrix coated 96-well plate at 8×10^3 cells per well in growth medium with or without NPY, its antagonist MK0557, or DMSO as a control. Inhibition of in vitro endothelial tubule formation by MK0557 was quantitated from photographs after 5 hours by counting the number of tubes in the well (FIG. 7).

[5] = test system: Hodgkin Lymphoma cells, HD-MYZ; assay: Hodgkin lymphoma xenograft model, MK0557 vs AVASTIN (Example 14); type: in vivo, NOD-SCID mice; conditions: for inhibition rate (tumor volume) / inhibition rate (tumor weight): versus vehicle
Text: Hodgkin lymphoma cells, HD-MYZ, were implanted in NOD-SCID mice. […] Tumor volume and tumor growth were monitored during the experiment.

[6] = molecular target: T1, human NPY1R (Homo sapiens, UniProt P25929); conditions: at a concentration of 10 μM; cited from earlier work
T1 sequence (P25929 1-384): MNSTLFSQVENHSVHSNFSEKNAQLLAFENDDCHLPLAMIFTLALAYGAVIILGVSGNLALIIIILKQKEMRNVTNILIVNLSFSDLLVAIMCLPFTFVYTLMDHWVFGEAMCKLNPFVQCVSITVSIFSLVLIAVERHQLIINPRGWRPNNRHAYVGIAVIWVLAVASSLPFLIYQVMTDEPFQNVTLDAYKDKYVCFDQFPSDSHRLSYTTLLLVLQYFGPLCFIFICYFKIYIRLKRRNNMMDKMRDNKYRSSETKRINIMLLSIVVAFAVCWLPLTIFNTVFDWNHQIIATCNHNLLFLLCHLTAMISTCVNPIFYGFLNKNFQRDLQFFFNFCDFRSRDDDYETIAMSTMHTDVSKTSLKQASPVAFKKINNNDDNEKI

[7] = molecular target: human NPY4R (Homo sapiens, UniProt P50391); conditions: at a concentration of 10 μM; cited from earlier work
Sequence of human NPY4R (P50391 whole entry): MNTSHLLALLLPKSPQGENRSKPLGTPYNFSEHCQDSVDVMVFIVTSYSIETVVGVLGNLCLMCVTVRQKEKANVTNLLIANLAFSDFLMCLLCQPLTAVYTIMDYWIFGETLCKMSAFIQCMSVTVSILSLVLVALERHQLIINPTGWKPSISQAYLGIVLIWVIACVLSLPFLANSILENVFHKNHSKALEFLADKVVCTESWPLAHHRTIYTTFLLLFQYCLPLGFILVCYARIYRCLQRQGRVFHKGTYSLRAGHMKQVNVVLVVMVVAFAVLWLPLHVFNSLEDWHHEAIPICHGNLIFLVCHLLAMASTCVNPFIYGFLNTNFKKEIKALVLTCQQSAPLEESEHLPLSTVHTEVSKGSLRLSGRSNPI

[8] = cited from earlier work
[9] = group 4: MK 0557 30 mg/kg i.p. 3 times for each week, versus vehicle
[10] = 15 mg/kg i.p. every day×3 weeks
[11] = 60 mg/kg p.o. every day×3 weeks

SMILES: O=C1O[C@]2(CC[C@H](C(=O)Nc3ccn(-c4ccccc4F)n3)CC2)c2cnccc21 [MK-0557, trans-N-[1-(2-fluorophenyl)-3-pyrazolyl]-3-oxospiro[6 azaisobenzofuran-1(3H), 1′-cyclohexane]-4′carboxamide]
- Mean Tumor Volume [1]: 392.73±80.63 mm^3
- Mean Tumor Weight [1]: 0.1582 ± 0.0345 g
- inhibition rate (tumor volume) ([1]; versus vehicle): 38.85%
- inhibition rate (tumor weight) ([1]; versus vehicle): 38.59%
- tolerability of the doses by the mice ([2]; doses of Example 16, except group 6): well tolerated
- Mean Tumor Volume ([2]; group 4: MK 0557 30 mg/kg i.p. 3 times for each week): 435.54+/−72.17 mm^3
- inhibition rate (tumor volume) [2, 9]: 70.94%
- inhibition rate (tumor weight) [2, 9]: 67.30%
- Mean Tumor Weight ([2]; group 4: MK 0557 30 gm/kg i.p. 3 times for each week): 0.3048 ± 0.0696 g
- change in body weight ([3]; 30 mg/kg intraperitoneally): not significantly affected
- tumor growth ([3]; 30 mg/kg intraperitoneally daily first week then once every two days): inhibited tumor growth
- tube formation [4]: inhibits tube formation
- Mean Tumor Volume [5, 10]: 698.76±61.19 mm^3
- Mean Tumor Weight [5, 10]: 0.40 ± 0.09 g
- inhibition rate (tumor volume) [5, 10]: 73.13%
- inhibition rate (tumor weight) [5, 10]: 84.19%
- Mean Tumor Volume [5, 11]: 671.97±96.89 mm^3
- Mean Tumor Weight [5, 11]: 0.43 ± 0.17 g
- inhibition rate (tumor volume) [5, 11]: 74.16%
- inhibition rate (tumor weight) [5, 11]: 83.0%
- binding to human NPY1R [6]: does not significantly bind
- binding to human NPY4R [7]: does not significantly bind
- reduction in weight regain ([8]; following very-low-calorie-diet induced weight loss): did not result in a clinically meaningful reduction in weight regain
- weight loss ([8]; overweight or obese adults, 1 mg/day, 5 mg/day or 25 mg/day): did not induce clinically meaningful weight loss
